Assay results taken from the supplement of paper PMC4862054.

Assays:
Details in all cases: incubation time: 72 h
[1] = test system: CAL-85-1; assay: drug sensitivity score (DSS), CellTiter-Blue viability (DSS (AUC-based score)); higher = stronger viability inhibition; extreme values may be limits of the assay
Description: (§1)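 DSRT with the CellTiter-Blue (resazurin reduction) viability readout, fluorescence 560/590 nm, 72 h incubation. Plates were normalised to DMSO and benzethonium chloride controls. DSS is computed from the area under the fitted dose-response curve (5 or 9 concentrations).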

[2] = test system: Hs578T; assay: as above
Description: as §1

[3] = test system: HCC1599; assay: as above
Description: as §1

[4] = test system: CAL-148; assay: normalised viability (% of control), CellTiter-Blue; higher = more viable cells (about 100 = DMSO control)
Description: (§2)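 DSRT, CellTiter-Blue viability, 72 h incubation. Signal is normalised to DMSO and benzethonium chloride controls. Value is the normalised response at dose 9.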

[5] = test system: CAL-85-1; assay: as above
Description: as §2

[6] = test system: CAL-51; assay: as above
Description: as §2

[7] = test system: MDA-MB-453; assay: as above
Description: as §2

[8] = test system: HDQ-P1; assay: as above
Description: as §2

[9] = test system: DU-4475; assay: as above
Description: as §2

[10] = test system: BT-549; assay: normalised response (% of control), CellTiter-Glo; higher = more viable cells (100 = DMSO, 0 = benzethonium chloride kill control)
How it was run: (§3)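 Each value is the plate-normalised signal at one concentration of the series. Breast cancer cell lines (20 µl suspension) were incubated 72 h in 384-well plates with compound at 5 concentrations in 10-fold steps over a compound-specific 10,000-fold range. CellTox Green and then CellTiter-Glo were read, and each plate was scaled to 0.1 % DMSO (100) and a positive kill control (0).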

[11] = test system: CAL-148; assay: as above
How it was run: as §3

[12] = test system: MDA-MB-468; assay: as above
How it was run: as §3

[13] = test system: CAL-51; assay: as above
How it was run: as §3

[14] = test system: MDA-MB-231; assay: as above
How it was run: as §3

[15] = test system: HCC1143; assay: as above
How it was run: as §3

[16] = test system: MDA-MB-453; assay: as above
How it was run: as §3

[17] = test system: MCF-10A; assay: as above
How it was run: as §3

[18] = test system: HDQ-P1; assay: as above
How it was run: as §3

[19] = test system: Hs578T; assay: as above
How it was run: as §3

[20] = test system: CAL-120; assay: as above
How it was run: as §3

[21] = test system: MDA-MB-436; assay: as above
How it was run: as §3

[22] = test system: DU-4475; assay: as above
How it was run: as §3

[23] = test system: HCC1599; assay: as above
How it was run: as §3

[24] = test system: BT-474; assay: as above
How it was run: as §3

[25] = test system: HCC1937; assay: as above
How it was run: as §3

[26] = test system: SK-BR-3; assay: as above
How it was run: as §3

`CN1CCC(COc2cnc(-c3cccc(Cn4nc(-c5cccc(C#N)c5)ccc4=O)c3)nc2)CC1` showed a drug sensitivity score [1] of 3.23, a drug sensitivity score [2] of 0 and a drug sensitivity score [3] of 0.

In the case of `CN(C)C/C=C/C(=O)Nc1cc2c(Nc3ccc(F)c(Cl)c3)ncnc2cc1O[C@H]1CCOC1` [Afatinib], the drug sensitivity score [1] is reported as 13.1, the drug sensitivity score [2] is reported as 4.14 and the drug sensitivity score [3] is reported as 0.

Work on `CN1CC[C@H](c2c(O)cc(O)c3c(=O)cc(-c4ccccc4Cl)oc23)[C@H](O)C1` [Alvocidib] yielded a drug sensitivity score [1] of 20.8, a drug sensitivity score [2] of 22.8 and a drug sensitivity score [3] of 17.4.

For `Nc1nc(Cl)nc2c1ncn2[C@H]1C[C@H](O)[C@@H](CO)O1` [Cladribine], the drug sensitivity score [1] was 0, the drug sensitivity score [2] was 0 and the drug sensitivity score [3] was 0.

`Nc1ccn([C@@H]2O[C@H](CO)[C@@H](O)[C@@H]2O)c(=O)n1` [Cytarabine] gave a drug sensitivity score [1] of 3.04, a drug sensitivity score [2] of 11.6 and a drug sensitivity score [3] of 3.

For `Cc1c2oc3c(C)ccc(C(=O)N[C@@H]4C(=O)N[C@H](C(C)C)C(=O)N5CCC[C@H]5C(=O)N(C)CC(=O)N(C)[C@@H](C(C)C)C(=O)O[C@@H]4C)c3nc-2c(C(=O)N[C@@H]2C(=O)N[C@H](C(C)C)C(=O)N3CCC[C@H]3C(=O)N(C)CC(=O)N(C)[C@@H](C(C)C)C(=O)O[C@@H]2C)c(N)c1=O` [Dactinomycin], the drug sensitivity score [1] was 30.9, the drug sensitivity score [2] was 33.6 and the drug sensitivity score [3] was 20.8.

Work on `COc1cccc2c1C(=O)c1c(O)c3c(c(O)c1C2=O)C[C@@](O)(C(=O)CO)C[C@@H]3O[C@H]1C[C@H](N)[C@H](O)[C@H](C)O1` [Doxorubicin] yielded a drug sensitivity score [1] of 5.11, a drug sensitivity score [2] of 9.11 and a drug sensitivity score [3] of 3.59.

For `Cc1ccc(F)c(NC(=O)Nc2ccc(-c3cccc4[nH]nc(N)c34)cc2)c1` [Linifanib], the drug sensitivity score [1] was 0, the drug sensitivity score [2] was 0 and the drug sensitivity score [3] was 0.

`COc1cc(Nc2ncc3c(n2)-c2ccc(Cl)cc2C(c2c(F)cccc2OC)=NC3)ccc1C(=O)O` [MLN8237] was tested, and the drug sensitivity score [1] was 11.9, the drug sensitivity score [2] was 14.7 and the drug sensitivity score [3] was 2.39.

Work on `S=c1[nH]cnc2nc[nH]c12` [Mercaptopurine] yielded a drug sensitivity score [1] of 0, a drug sensitivity score [2] of 0 and a drug sensitivity score [3] of 0.

`C=CCNC1=C2C[C@@H](C)C[C@H](OC)[C@H](O)[C@@H](C)/C=C(\C)[C@H](OC(N)=O)[C@@H](OC)/C=C\C=C(/C)C(=O)NC(=CC1=O)C2=O` [Tanespimycin] (10000 nM) was tested, and the normalised viability [4] was 9.8%, the normalised viability [5] was 21.8% and the normalised viability [6] was 4.68%. The normalised viability [7] was 3.61%, the normalised viability [8] was 24.8% and the normalised viability [9] was -0.27%. It also gave a normalised response [10] of 35.5%, a normalised response [11] of 25% and a normalised response [12] of 25.5%. It also gave a normalised response [13] of 14.9%, a normalised response [14] of 15.5% and a normalised response [15] of 32.6%. The normalised response [16] was 28.6%, the normalised response [17] was 14% and the normalised response [18] was 20.7%. For the same compound, the normalised response [19] was 34.2%, the normalised response [20] was 42.3% and the normalised response [21] was 41.8%. The normalised response [22] was -0.09%, the normalised response [23] was 54.5% and the normalised response [24] was 22.3%. It also gave a normalised response [25] of 34% and a normalised response [26] of 37.1%.

`C[C@]1(c2nc3c(C(N)=O)cccc3[nH]2)CCCN1` [Veliparib] (10000 nM) showed a normalised viability [4] of 94.9%, a normalised viability [5] of 78.9% and a normalised viability [6] of 94.7%. The normalised viability [7] was 94.9%, the normalised viability [8] was 93.2% and the normalised viability [9] was 81%. It also gave a normalised response [10] of 95.7%, a normalised response [11] of 99.2% and a normalised response [12] of 75.5%. It also gave a normalised response [13] of 96.1%, a normalised response [14] of 93.3% and a normalised response [15] of 91.6%. The normalised response [16] was 121%, the normalised response [17] was 97.3% and the normalised response [18] was 102%. It also gave a normalised response [19] of 98.9%, a normalised response [20] of 93.1% and a normalised response [21] of 94.5%. It also gave a normalised response [22] of 96.8%, a normalised response [23] of 77.1% and a normalised response [24] of 82.1%. The normalised response [25] was 93.6% and the normalised response [26] was 90.9%.

With `CC[C@]1(O)C[C@@H]2CN(CCc3c([nH]c4ccccc34)[C@@](C(=O)OC)(c3cc4c(cc3OC)N(C)[C@H]3[C@@](O)(C(=O)OC)[C@H](OC(C)=O)[C@]5(CC)C=CCN6CC[C@]43[C@@H]65)C2)C1` [Vinblastine] (1000 nM) the normalised viability [4] was 22.7%, the normalised viability [5] was 44.6% and the normalised viability [6] was 11.4%. The normalised viability [7] was 36.3%, the normalised viability [8] was 39.6% and the normalised viability [9] was 7.08%. The normalised response [10] was 34.3%, the normalised response [11] was 55.3% and the normalised response [12] was 33.9%. For the same compound, the normalised response [13] was 23.9%, the normalised response [14] was 43.4% and the normalised response [15] was 50.2%. For the same compound, the normalised response [16] was 64.7%, the normalised response [17] was 71.6% and the normalised response [18] was 70.6%. For the same compound, the normalised response [19] was 15.3%, the normalised response [20] was 59.1% and the normalised response [21] was 22.6%. It also gave a normalised response [22] of 37.8%, a normalised response [23] of 12.6% and a normalised response [24] of 46.8%. For the same compound, the normalised response [25] was 69.3% and the normalised response [26] was 17.6%.

`CS(=O)(=O)c1ccc(C(=O)Nc2ccc(Cl)c(-c3ccccn3)c2)c(Cl)c1` [Vismodegib] (10000 nM) was tested, and the normalised viability [4] was 81.6%, the normalised viability [5] was 104% and the normalised viability [6] was 109%. For the same compound, the normalised viability [7] was 86.5%, the normalised viability [8] was 89.3% and the normalised viability [9] was 123%. For the same compound, the normalised response [10] was 102%, the normalised response [11] was 86.5% and the normalised response [12] was 97.2%. The normalised response [13] was 97.8%, the normalised response [14] was 98% and the normalised response [15] was 89.9%. The normalised response [16] was 87.9%, the normalised response [17] was 93.9% and the normalised response [18] was 91.7%. It also gave a normalised response [19] of 99.5%, a normalised response [20] of 99.3% and a normalised response [21] of 96.8%. For the same compound, the normalised response [22] was 97.8%, the normalised response [23] was 88.8% and the normalised response [24] was 90.4%. The normalised response [25] was 90% and the normalised response [26] was 87.3%.
